Tests used:
[1] = target: T1, mouse NPY5-receptor (mNPY5) (Mus musculus, UniProt O70342); assay: Radioligand competition binding; conditions: HEK293 membranes expressing recombinant mNPY5; 100 pM [125I]labelled peptide YY; 1 h at 22° C.
T1 construct: The full-length cDNA encoding the mouse NPY5 (mNPY5) receptor was amplified from mouse brain cDNA; expressed in transfected cells; membrane preparation
T1 sequence (O70342 1-466): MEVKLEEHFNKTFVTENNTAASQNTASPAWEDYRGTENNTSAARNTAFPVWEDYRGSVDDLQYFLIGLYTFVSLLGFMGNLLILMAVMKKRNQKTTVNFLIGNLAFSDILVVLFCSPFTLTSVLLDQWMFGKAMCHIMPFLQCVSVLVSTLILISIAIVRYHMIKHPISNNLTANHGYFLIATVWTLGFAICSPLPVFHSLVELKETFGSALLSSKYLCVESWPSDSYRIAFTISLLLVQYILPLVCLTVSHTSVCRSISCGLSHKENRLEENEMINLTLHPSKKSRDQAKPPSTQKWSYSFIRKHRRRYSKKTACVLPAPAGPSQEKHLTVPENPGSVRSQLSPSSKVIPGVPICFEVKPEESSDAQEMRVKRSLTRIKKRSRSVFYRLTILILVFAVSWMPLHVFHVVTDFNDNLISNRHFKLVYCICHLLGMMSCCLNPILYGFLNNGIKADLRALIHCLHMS
Description: The full-length cDNA encoding the mouse NPY5 (mNPY5) receptor was amplified from mouse brain cDNA using specific primers, designed based on the published sequence, and Pfu DNA-Polymerase (Stratagene). The amplification product was subcloned into the mammalian expression vector pcDNA3 using Eco RI and XhoI restriction sites. Positive clones were sequenced and one clone, encoding the published sequence was selected for generation of stable cell clones.
Human embryonic kidney 293 (HEK293) cells were transfected with 10 μg mNPY5 DNA using the lipofectamine reagent (Gibco BRL) according to the manufacturer's instruction. Two days after transfection, geneticin selection (1 mg/ml) was initiated and several stable clones were isolated. One clone was further used for pharmacological characterization.
Human embryonic kidney 293 cells (HEK293), expressing recombinant mouse NPY5-receptor (mNPY5) were broken by three freeze/thawing cycles in hypotonic Tris buffer (5 mM, pH 7.4, 1 mM MgCl2), homogenized and centrifuged at 72,000×g for 15 min. The pellet was washed twice with 75 mM Tris buffer, pH 7.4, containing 25 mM MgCl2 and 250 mM sucrose, 0.1 mM phenylmethylsulfonylfluoride and 0.1 mM 1,10-pheneanthrolin, resuspended in the same buffer and stored in aliquots at −80° C. Protein was determined according to the method of Lowry using bovine serum albumine (BSA) as a standard. […]

SMILES | IC50 [1] [nM] | melting point [°C]
Cc1cc(N2CCCCC2)c2ccc(-c3ccc4[nH]ccc4c3)cc2n1 [Example 1.17, 7-(1H-Indol-5-yl)-2-methyl-4-piperidin-1-yl-quinoline] | 100 | –
COc1ccc(-c2ccc3c(N4CCCC4)cc(C)nc3c2)cc1 [Example 1.6, 7-(4-methoxy-phenyl)-2-methyl-4-pyrrolidin-1-yl-quinoline] | 60 | –
Cc1cc(N2CCCCC2)c2ccc(-c3cccs3)cc2n1 [Example 1.15, 2-methyl-4-piperidin-1-yl-7-thiophen-2-yl-quinoline] | – | 122 to 123
Cc1cc(N2CCCCC2)c2ccc(-c3ccccc3)cc2n1 [Example 1.16, 2-methyl-7-phenyl-4-piperidin-1-yl-quinoline] | – | 111 to 112

From patent publication US7265125B2, “Neuropeptide Y antagonists” (Hoffmann-La Roche Inc., priority 2000, dated 2007)
